This is an account of results in patent US20230128688A1, “DIRECTED CONJUGATION TECHNOLOGIES” (KLEO PHARMACEUTICALS, INC., priority 2019, published 2023).

Starred links: 1 amine or outer side, 2 acyl side, 3 side chain; linkers in the order of their positions; H or OH if unused. Positions of bridges follow the written chain, without caps; N, C: chain ends. Non-standard residues stand in square brackets, D forms with d. Residues, ends and D or L forms follow the SMILES beside them. Groups on a side chain read outwards from the residue. *: point of attachment. FITC = O=C1OC2(c3ccc(O)cc3Oc3cc(O)ccc32)c2ccc(NC(=S)*)cc21; X6 = O=C([C@H](Cc1cccc(O[*:3])c1)N[*:1])[*:2]; PEG8 = NCCOCCOCCOCCOCCOCCOCCOCCOCCC(=O)O; PEG6 = NCCOCCOCCOCCOCCOCCOCCC(=O)O; X7 = Fc1ccc(O*)cc1

Test [1] relates to daratumumab. The test can be described thus: Absorbance based DAR analysis of FITC conjugation to antibody. Format: biochemical. As to the method: (§1) In some embodiments, reaction partners, e.g., compounds of formula R-I or salts thereof ere dissolved in DMSO to 5 mM stock solution.
(§2) In some embodiments, reactions are set up with 300 micrograms of antibody. In some embodiments, various conditions, including various buffers, reagent equivalents, reaction time, reaction temperature and reaction concentrations can be utilized.
As an example, one reaction is 300 microliter reaction with 1 mg/mL of antibody in PBS. Peptide I-45 (1 microliter of 5 mM stock in DMSO, 2.5 molar equivalents relative to daratumumab) was diluted in 284 microliters of PBS buffer (10 mM phosphate, 150 mM sodium chloride, pH 7.4), then 15 microliters of daratumumab (20 mg/mL stock) was added to the reaction mixture followed by incubation at room temperature in the dark. After 4 h reaction buffer was exchanged using Amicon Ultra centrifuge filter (30 KDa MWCO, 0.5 mL volume). First, glycine buffer (100 mM, pH 2.1) was used for buffer exchange to ensure dissociation of target binding moieties after reaction. Then, phosphate buffer saline (pH 7.4) was used for further buffer exchange and storage.
In another example, a reaction is 300 microliter reaction with 1 mg/mL of antibody in borate buffer. Peptide I-44 (1.2 microliter of 5 mM stock in DMSO, 3.0 molar equivalents relative to daratumumab) was diluted in 284 microliters of Borate buffer (100 mM borate, pH 8.3), then 15 microliters of daratumumab (20 mg/mL stock) was added to the reaction mixture followed by incubation at room temperature in the dark. After 20 h reaction buffer was exchanged using Amicon Ultra centrifuge filter (30 KDa MWCO, 0.5 mL volume). First, glycine buffer (100 mM, pH 2.1) was used for buffer exchange to ensure dissociation of target binding moieties after reaction. Then, phosphate buffer saline (10 mM phosphate, 150 mM sodium chloride, pH 7.4) was used for further buffer exchange and storage.
(§3) In some embodiments, a useful technology is absorbance based DAR analysis. DAR (ratio of moieties of interest and target agent moieties (e.g., antibody agent moieties) was calculated for various antibody conjugates, e.g., in various reagent screening/assessment methods. Various agents comprising target binding moieties were assessed for conjugation efficiency as reaction partners with targets, e.g. protein agents such as antibody agents, compared to reagents with the same reactive groups but without target binding moieties. In various ratio determination ‘Drug’/moiety of interest is fluorescein isothiocyanate (FITC) dye conjugated to target agents, e.g., antibody agents. DAR molar ratio is defined as a ratio of moles of drug/moiety of interest to moles of target agent/antibody. Molarity is calculated from absorbance of FITC (A485) and antibody (A280) of conjugated product, and extinction coefficients of FITC and antibody using Beer-Lambert law. Correction coefficient 0.35 was used to correct for absorbance of FITC at 280 nm. Biotek Synergy H1 microplate reader and Take3 microvolume plate were used for absorbance measurements. Concentration of antibody was at least 3 mg/mL for optimal signal-to-noise in the readings. Certain target binding moieties that can provide higher DAR compared to equivalent controls (absence of target binding moieties) were selected as hits for further analysis. Certain assessment data were provided below as examples.

The subject of test [2] is Cetuximab. The test is described as above. Format: biochemical. Particulars: 2.5 M eq reagent, phosphate buffer saline pH 7.4, 4 h, 25 C; Drug = FITC. As to the method:
as §1, §2, §3
Reactions were set up with antibodies using 2.5 M eq of indicated reagent in phosphate buffer saline pH 7.4 for 4 h at 25° C. DAR is Drug to antibody ratio, in this case “Drug” is FITC and DAR is measured using FITC absorbance.

[3] abbreviates: 5 M eq reagent, phosphate buffer saline pH 7.4, 4 h, 25 C, Drug = FITC.
The mark [4] stands for this setting: 30 M eq reagent, borate buffer pH 8.3, 20 h, 37 C, Drug = FITC.
Setting [5] is: 10 M eq reagent, Bicarbonate buffer pH 8.3, 2 h, 37 C, Drug = FITC.
The mark [6] stands for this setting: 2.5 M eq reagent, phosphate buffer saline pH 7.4, 4 h, 25 C, Drug = FITC.
The mark [7] stands for this setting: 5 M eq reagent, bicarbonate buffer pH 8.3, 20 h, 37 C, Drug = FITC.
Where [8] appears, read: 10 M eq reagent, Bicarbonate buffer pH 8.3, 20 h, 25 C, Drug = FITC.

With `CC(=O)N[C@@H](CC(=O)O)C(=O)N[C@H]1CSSC[C@@H](C(=O)N[C@H](C(=O)O)C(C)C)NC(=O)[C@H](Cc2c[nH]c3ccccc23)NC(=O)[C@H](C(C)C)NC(=O)[C@H](CC(C)C)NC(=O)[C@H](CCC(=O)O)NC(=O)CNC(=O)[C@H](CC(C)C)NC(=O)[C@H](Cc2cccc(OC(=O)CCOCCOCCOCCOCCOCCOCCOCCOCCNC(=S)Nc3ccc4c(c3)C(=O)OC43c4ccc(O)cc4Oc4cc(O)ccc43)c2)NC(=O)[C@H](Cc2c[nH]c3ccccc23)NC(=O)[C@H](C)NC1=O` [Compound I-46] (Ac-DCAW[X6]([PEG8-FITC])LGELVWCV-OH; disulfide 2-12), the results for the DAR in test [1] (setting [3]) and in test [1] (setting [4]) were 0.15 and 0.43, respectively.

As for `COc1ccc(NC(=O)c2cn3ccsc3n2)cc1C(=O)NCCCC(=O)NCc1cc(F)c(OC(=O)CCOCCOCCOCCOCCOCCOCCNC(=S)Nc2ccc3c(c2)C(=O)OC32c3ccc(O)cc3Oc3cc(O)ccc32)c(F)c1` [Compound I-1], the DAR in test [1] (setting [5]) is 1.00.

`CCNC(=O)c1ccc(OC(=O)CCOCCOCCOCCOCCOCCOCCNC(=S)Nc2ccc3c(c2)C(=O)OC32c3ccc(O)cc3Oc3cc(O)ccc32)c(F)c1` [Compound I-18]: the DAR in test [1] (setting [6]) is given as 0.05; in test [1] (2.5 M eq, 25 C, 4 h, Acetate pH 6.2) it was 0.08; in test [1] (2.5 M eq, 25 C, 4 h, Borate pH 8.3) it was 0.35; in test [1] (2.5 M eq, 25 C, 4 h, PBS pH 7.4), 0.05; in test [1] (setting [3]) it was 0.15; in test [1] (5 M eq, 25 C, 4 h, Acetate pH 6.2) it was 0.14. Moreover, the DAR in test [1] (5 M eq, 25 C, 4 h, Borate pH 8.3) came out at 0.42; in test [1] (5 M eq, 25 C, 4 h, PBS pH 7.4), 0.08; in test [1] (10 M eq, 25 C, 2 h, Acetate pH 6.2), 0.12; in test [1] (10 M eq, 25 C, 4 h, Borate pH 8.3), 0.77; in test [1] (10 M eq, 25 C, 4 h, PBS pH 7.4) it was 0.15. Moreover, the “DAR Daratumumab” value in test [1] (setting [6]) is 0.05. Besides, the “DAR Cetuximab” value in test [2] amounted to 0.04.

With `Cc1nc2cc(C(=O)Nc3nc(-c4ccccn4)cs3)ccc2n1CCCC(=O)NCc1ccc(OC(=O)CCOCCOCCOCCOCCOCCOCCNC(=S)Nc2ccc3c(c2)C(=O)OC32c3ccc(O)cc3Oc3cc(O)ccc32)cc1` [Compound I-13], the DAR in test [1] (setting [7]) was 0.09.

For `O=C(CCCc1c[nH]c2ccccc12)NCc1ccc(OC(=O)CCOCCOCCOCCOCCOCCOCCNC(=S)Nc2ccc3c(c2)C(=O)OC32c3ccc(O)cc3Oc3cc(O)ccc32)c(F)c1` [Compound I-17], the DAR in test [1] (setting [7]) was determined as 0.37.

Turning to `COc1ccc(NC(=O)c2cn3ccsc3n2)cc1C(=O)NCCCC(=O)N[C@@H](CCC(=O)N(C)OC)C(=O)NCCOCCOCCOCCOCCOCCOCCOCCOCCN(CCCS(=O)(=O)O)C(=O)OC[C@H]1[C@@H]2CCc3c(nnn3CCOCCOCCOCCOCCNC(=S)Nc3ccc4c(c3)C(=O)OC43c4ccc(O)cc4Oc4cc(O)ccc43)CC[C@@H]21` [Compound I-20], the DAR in test [1] (setting [8]) was 0.72.

Regarding `CCNC(=O)c1ccc(OC(=O)CCOCCOCCOCCOCCOCCOCCNC(=S)Nc2ccc3c(c2)C(=O)OC32c3ccc(O)cc3Oc3cc(O)ccc32)cc1` [Compound I-19], the DAR in test [1] (setting [6]) was 0.20.

For `CC(=O)N[C@@H](CC(=O)O)C(=O)N[C@H]1CSSC[C@@H](C(=O)N[C@H](C(=O)O)[C@@H](C)O)NC(=O)[C@H](Cc2c[nH]c3ccccc23)NC(=O)[C@H](C(C)C)NC(=O)[C@H](CC(C)C)NC(=O)[C@H](CCC(=O)O)NC(=O)CNC(=O)[C@H](CCC(=O)Nc2cc(OC(=O)CCOCCOCCOCCOCCOCCOCCOCCOCCNC(=S)Nc3ccc4c(c3)C(=O)OC43c4ccc(O)cc4Oc4cc(O)ccc43)ccc2F)NC(=O)[C@H](Cc2c[nH]cn2)NC(=O)[C@H](Cc2c[nH]c3ccccc23)NC(=O)[C@H](C)NC1=O` [Compound I-24], the DAR in test [1] (setting [3]) amounted to 0.05; in test [1] (setting [4]), 0.83.

Turning to `N=C(N)NCCC[C@H](NC(=O)CCOCCOCCOCCOCCOCCOCCOCCOCCNC(=O)c1ccc(OC(=O)CCOCCOCCOCCOCCOCCOCCNC(=S)Nc2ccc3c(c2)C(=O)OC32c3ccc(O)cc3Oc3cc(O)ccc32)cc1)C(=O)N[C@@H](CCCNC(=N)N)C(=O)NCC(=O)N[C@@H](Cc1c[nH]c2ccccc12)C(=O)O` [Compound I-21], the DAR in test [1] (setting [8]) is recorded as 0.18.

For `N=C(N)NCCC[C@H](NC(=O)CCOCCOCCOCCOCCNC(=O)c1ccc(OC(=O)CCOCCOCCOCCOCCOCCOCCNC(=S)Nc2ccc3c(c2)C(=O)OC32c3ccc(O)cc3Oc3cc(O)ccc32)cc1)C(=O)N[C@@H](CCCNC(=N)N)C(=O)NCC(=O)N[C@@H](Cc1c[nH]c2ccccc12)C(=O)O` [Compound I-22], in test [1] (setting [8]), the DAR is recorded as −0.18.

`Cc1nc2cc(C(=O)Nc3nc(-c4ccccn4)cs3)ccc2n1CCCC(=O)NCc1ccc(OC(=O)CCOCCOCCOCCOCCOCCOCCNC(=O)Nc2ccc3c(c2)C(=O)OC32c3ccc(O)cc3Oc3cc(O)ccc32)c(F)c1` [Compound I-12]: in test [1] (setting [7]), the DAR came to 1.44.

As to `O=C(CCCc1c[nH]c2ccccc12)NCc1cc(F)c(OC(=O)CCOCCOCCOCCOCCOCCOCCNC(=S)Nc2ccc3c(c2)C(=O)OC32c3ccc(O)cc3Oc3cc(O)ccc32)c(F)c1` [Compound I-16], the DAR in test [1] (setting [7]) was 0.30.

Regarding `CC(=O)N[C@@H](CC(=O)O)C(=O)N[C@H]1CSSC[C@@H](C(=O)N[C@H](C(=O)O)[C@@H](C)O)NC(=O)[C@H](Cc2c[nH]c3ccccc23)NC(=O)[C@H](C(C)C)NC(=O)[C@H](CC(C)C)NC(=O)[C@H](CCC(=O)O)NC(=O)CNC(=O)[C@H](CC(C)C)NC(=O)[C@H](CCNC(=O)c2ccc(OC(=O)CCOCCOCCOCCOCCOCCOCCNC(=S)Nc3ccc4c(c3)C(=O)OC43c4ccc(O)cc4Oc4cc(O)ccc43)cc2)NC(=O)[C@H](Cc2c[nH]c3ccccc23)NC(=O)[C@H](C)NC1=O` [Compound I-42], the DAR in test [1] (setting [6]) stood at 0.13.

As for `CC(=O)NCc1ccc(OC(=O)CCOCCOCCOCCOCCOCCOCCNC(=S)Nc2ccc3c(c2)C(=O)OC32c3ccc(O)cc3Oc3cc(O)ccc32)cc1` [Compound I-11], the DAR in test [1] (setting [6]) is 0.05; in test [1] (setting [5]), 0.14; in test [1] (setting [4]) it was 0.14.

With `N=C(N)NCCC[C@H](NC(=O)CCOCCOCCOCCOCCOCCOCCOCCOCCNC(=O)[C@H](CCC(=O)Oc1ccc(F)cc1)NC(=O)CCOCCOCCOCCOCCOCCOCCNC(=S)Nc1ccc2c(c1)C(=O)OC21c2ccc(O)cc2Oc2cc(O)ccc21)C(=O)N[C@@H](CCCNC(=N)N)C(=O)NCC(=O)N[C@@H](Cc1c[nH]c2ccccc12)C(=O)O` [Compound I-27] ({FITC-PEG6}-E(X7)[PEG8]RRGW-OH), in test [1] (setting [4]), the DAR is given as −0.02.

`CCCCNc1nc(NCCOCCOCCC(=O)NCc2cc(F)c(OC(=O)CCOCCOCCOCCOCCOCCOCCNC(=S)Nc3ccc4c(c3)C(=O)OC43c4ccc(O)cc4Oc4cc(O)ccc43)c(F)c2)nc(NCc2cccc(F)c2)n1` [Compound I-2]: the DAR in test [1] (setting [5]) came out at 1.76.

For `Cc1nc2cc(C(=O)Nc3nc(-c4ccccn4)cs3)ccc2n1CCCC(=O)NCc1cc(F)c(OC(=O)CCOCCOCCOCCOCCOCCOCCNC(=S)Nc2ccc3c(c2)C(=O)OC32c3ccc(O)cc3Oc3cc(O)ccc32)c(F)c1` [Compound I-3], the DAR in test [1] (setting [5]) was 1.39.

With `CC(C)C[C@@H]1NC(=O)[C@H](Cc2cnc[nH]2)NC(=O)[C@H](Cc2c[nH]c3ccccc23)NC(=O)[C@H](C)NC(=O)[C@@H](NC(=O)[C@@H](N)CC(=O)O)CSSC[C@@H](C(=O)N[C@H](C(=O)O)[C@@H](C)O)NC(=O)[C@H](Cc2c[nH]c3ccccc23)NC(=O)[C@H](C(C)C)NC(=O)[C@H](CC(C)C)NC(=O)[C@H](CCC(=O)Nc2cc(OC(=O)CCOCCOCCOCCOCCOCCOCCOCCOCCNC(=S)Nc3ccc4c(c3)C(=O)OC43c4ccc(O)cc4Oc4cc(O)ccc43)ccc2F)NC(=O)CNC1=O` [Compound I-25], the DAR is given as 0.10 in test [1] (setting [3]) and 1.25 in test [1] (setting [4]).
